Data: US11912737B2, “19-nor neuroactive steroids and methods of use thereof” (Sage Therapeutics, Inc., priority 2013, dated 2024)

Each compound was assayed against [35S]-TBPS binding, rat brain cortical membranes (assay: Steroid inhibition of [35S]-TBPS binding). Conditions: 3 nM [35S]-TBPS, in the presence of 5 μM GABA.
Experimental: Steroid Inhibition of TBPS Binding
[35S]-t-Butylbicylophorothionate (TBPS) binding assays using rat brain cortical membranes in the presence of 5 μM GABA has been described (Gee et al, J. Pharmacol. Exp. Ther. 1987, 241, 346-353; Hawkinson et al, Mol. Pharmacol. 1994, 46, 977-985; Lewin, A. H et al., Mol. Pharmacol. 1989, 35, 189-194).
Briefly, cortices are rapidly removed following decapitation of carbon dioxide-anesthetized Sprague-Dawley rats (200-250 g). The cortices are homogenized in 10 volumes of ice-cold 0.32 M sucrose using a glass/teflon homogenizer and centrifuged at 1500×g for 10 min at 4° C. The resultant supernatants are centrifuged at 10,000×g for 20 min at 4° C. to obtain the P2 pellets. The P2 pellets are resuspended in 200 mM NaCl/50 mM Na—K phosphate pH 7.4 buffer and centrifuged at 10,000×g for 10 min at 4° C. This washing procedure is repeated twice and the pellets are resuspended in 10 volumes of buffer. Aliquots (100 μL) of the membrane suspensions are incubated with 3 nM [^35S]-TBPS and 5 μL aliquots of test drug dissolved in dimethyl sulfoxide (DMSO) (final 0.5%) in the presence of 5 μM GABA. The incubation is brought to a final volume of 1.0 mL with buffer. Nonspecific binding is determined in the presence of 2 μM unlabeled TBPS and ranged from 15 to 25%. Following a 90 min incubation at room temp, the assays are terminated by filtration through glass fiber filters (Schleicher and Schuell No. 32) using a cell harvester (Brandel) and rinsed three times with ice-cold buffer. Filter bound radioactivity is measured by liquid scintillation spectrometry. Non-linear curve fitting of the overall data for each drug averaged for each concentration is done using Prism (GraphPad).
Various compounds are or can be screened to determine their potential as modulators of [^355]-TBPS binding in vitro. These assays are or can be performed in accordance with the above discussed procedures.

Row | Structure (SMILES) | IC50 [nM]
1 | C[C@@]1(O)CC[C@H]2[C@H](CC[C@@H]3[C@@H]2CC[C@]2(C)[C@@H](C(=O)CN4CCC(O)C4)CC[C@@H]32)C1 (stereo partly drawn) [Entry 4] | 100 to 500
2 | COC[C@@]1(O)CC[C@H]2[C@H](CC[C@@H]3[C@@H]2CC[C@]2(C)[C@@H](C(=O)CN4CCOCC4)CC[C@@H]32)C1 [Entry 43] | ≥ 500
3 | C[C@@H]1C[C@H]2[C@@H](CC[C@@H]3[C@@H]2CC[C@]2(C)[C@@H](C(=O)CN4CCOCC4)CC[C@@H]32)C[C@]1(C)O [Entry 39] | 100 to 500
4 | CC(=O)N1CCN(CC(=O)[C@H]2CC[C@H]3[C@@H]4CC[C@H]5C[C@](C)(O)[C@H](C)C[C@@H]5[C@H]4CC[C@]23C)CC1 [Entry 20] | 100 to 500
5 | C[C@@]1(O)CC[C@H]2[C@H](CC[C@@H]3[C@@H]2CC[C@]2(C)[C@@H](C(=O)CN4CCNCC4)CC[C@@H]32)C1 [Entry 51] | 100 to 500
6 | C[C@@H]1COCCN1CC(=O)[C@H]1CC[C@H]2[C@@H]3CC[C@@H]4C[C@](C)(O)CC[C@@H]4[C@H]3CC[C@]12C [Entry 11] | 100 to 500
7 | CC[C@@]1(O)CC[C@H]2[C@@H](CC[C@@H]3[C@@H]2CC[C@]2(C)[C@@H](C(=O)CN4CCN(S(C)(=O)=O)CC4)CC[C@@H]32)C1 [Entry 33] | 100 to 500
8 | C[C@]12CC[C@H]3[C@@H](CC[C@H]4C[C@@](O)(CF)CC[C@@H]43)[C@@H]1CC[C@@H]2C(=O)CN1CCOCC1 [Entry 48] | ≥ 500
9 | C[C@@]1(O)CC[C@H]2[C@@H](CC[C@@H]3[C@@H]2CC[C@]2(C)[C@@H](C(=O)CN4CCCC(O)C4)CC[C@@H]32)C1 (stereo partly drawn) [Entry 15] | ≥ 500

Each compound was assayed against α1β2γ2 GABAA receptor (Homo sapiens (Human), UniProt P14867+P47870) (assay: not given). Conditions: not given.

Row | Structure (SMILES) | EC50 [nM]
10 | C[C@@H]1COCCN1CC(=O)[C@H]1CC[C@H]2[C@@H]3CC[C@@H]4C[C@](C)(O)CC[C@@H]4[C@H]3CC[C@]12C [Entry 3] | > 2000
11 | C[C@@H]1CN(CC(=O)[C@H]2CC[C@H]3[C@@H]4CC[C@@H]5C[C@](C)(O)CC[C@@H]5[C@H]4CC[C@]23C)CCO1 [Entry 2] | 1000 to 2000

Same assay, conditions: LTK, read-out: GABA (α1β2γ2) Qpatch in Ltk, % efficacy at 10 μM, Qpatch, Ltk cells, 10 μM compound, 2 μM GABA

Row | Structure (SMILES) | Emax at 10 µM [%]
12 | C[C@]12CC[C@H]3[C@@H](CC[C@@H]4C[C@@](O)(CF)CC[C@@H]43)[C@@H]1CC[C@@H]2C(=O)CN1CCN(S(C)(=O)=O)CC1 [Entry 32] | > 500
13 | CC(=O)N1CCN(CC(=O)[C@H]2CC[C@H]3[C@@H]4CC[C@H]5C[C@](C)(O)[C@H](C)C[C@@H]5[C@H]4CC[C@]23C)CC1 [Entry 26] | 100 to 500
14 | C[C@@]1(O)CC[C@H]2[C@H](CC[C@@H]3[C@@H]2CC[C@]2(C)[C@@H](C(=O)CN4CCC(O)C4)CC[C@@H]32)C1 (stereo partly drawn) [Entry 4] | 100 to 500
15 | C[C@@]1(O)CC[C@H]2[C@H](CC[C@@H]3[C@@H]2CC[C@]2(C)[C@@H](C(=O)CN4CCCOCC4)CC[C@@H]32)C1 [Entry 58] | > 500
16 | C[C@@]1(O)CC[C@H]2[C@H](CC[C@@H]3[C@@H]2CC[C@]2(C)[C@@H](C(=O)CN4CCN(S(C)(=O)=O)CC4)CC[C@@H]32)C1 [Entry 8] | > 500
17 | C[C@]12CC[C@H]3[C@@H](CC[C@@H]4C[C@@](O)(C(F)F)CC[C@@H]43)[C@@H]1CC[C@@H]2C(=O)CN1CCN(S(C)(=O)=O)CC1 [Entry 56] | 100 to 500
18 | C[C@@H]1CN(CC(=O)[C@H]2CC[C@H]3[C@@H]4CC[C@@H]5C[C@](C)(O)CC[C@@H]5[C@H]4CC[C@]23C)CCO1 [Entry 6] | 100 to 500
19 | C[C@@H]1COCCN1CC(=O)[C@H]1CC[C@H]2[C@@H]3CC[C@@H]4C[C@](C)(O)CC[C@@H]4[C@H]3CC[C@]12C [Entry 7] | 100 to 500
20 | C[C@]12CC[C@H]3[C@@H](CC[C@@H]4C[C@@](O)(CF)CC[C@@H]43)[C@@H]1CC[C@@H]2C(=O)CN1CCOCC1 [Entry 55] | 10 to 100
21 | C[C@@H]1C[C@H]2[C@@H](CC[C@@H]3[C@@H]2CC[C@]2(C)[C@@H](C(=O)CN4CCOCC4)CC[C@@H]32)C[C@]1(C)O [Entry 47] | 10 to 100
22 | CC[C@@]1(O)CC[C@H]2[C@H](CC[C@@H]3[C@@H]2CC[C@]2(C)[C@@H](C(=O)CN4CCN(S(C)(=O)=O)CC4)CC[C@@H]32)C1 [Entry 34] | 100 to 500
23 | CNC(=O)N1CCN(CC(=O)[C@H]2CC[C@H]3[C@@H]4CC[C@@H]5C[C@](C)(O)CC[C@@H]5[C@H]4CC[C@]23C)CC1 [Entry 9] | 100 to 500
24 | C[C@H]1C[C@H]2[C@@H](CC[C@@H]3[C@@H]2CC[C@]2(C)[C@@H](C(=O)CN4CCOCC4)CC[C@@H]32)C[C@]1(C)O [Entry 45] | 10 to 100
25 | COC[C@@]1(O)CC[C@H]2[C@@H](CC[C@@H]3[C@@H]2CC[C@]2(C)[C@@H](C(=O)CN4CCOCC4)CC[C@@H]32)C1 [Entry 50] | 10 to 100
26 | CC(=O)N1CCN(CC(=O)[C@H]2CC[C@H]3[C@@H]4CC[C@H]5C[C@](C)(O)[C@@H](C)C[C@@H]5[C@H]4CC[C@]23C)CC1 [Entry 27] | 100 to 500
27 | CC(=O)N1CCN(CC(=O)[C@H]2CC[C@H]3[C@@H]4CC[C@@H]5C[C@](C)(O)CC[C@@H]5[C@H]4CC[C@]23C)CC1 [Entry 17] | 100 to 500
28 | COC[C@@]1(O)CC[C@H]2[C@H](CC[C@@H]3[C@@H]2CC[C@]2(C)[C@@H](C(=O)CN4CCN(S(C)(=O)=O)CC4)CC[C@@H]32)C1 [Entry 30] | > 500
29 | CC(=O)N1CCN(CC(=O)[C@H]2CC[C@H]3[C@@H]4CC[C@H]5C[C@](C)(O)CC[C@@H]5[C@H]4CC[C@]23C)CC1 [Entry 10] | 100 to 500

Same assay, conditions: LTK, read-out: GABAa alpha1 (α1β2γ2) Emax (%), potentiation of GABA EC20 (2 μM) current

Row | Structure (SMILES) | Emax [%]
30 | C[C@@H]1COCCN1CC(=O)[C@H]1CC[C@H]2[C@@H]3CC[C@@H]4C[C@](C)(O)CC[C@@H]4[C@H]3CC[C@]12C [Entry 3] | 0 to 500
31 | C[C@@H]1CN(CC(=O)[C@H]2CC[C@H]3[C@@H]4CC[C@@H]5C[C@](C)(O)CC[C@@H]5[C@H]4CC[C@]23C)CCO1 [Entry 2] | 0 to 500

Same assay, conditions: Qpatch, Ltk cells, 10 μM compound, 2 μM GABA

Row | Structure (SMILES) | GABA (α1β2γ2) Qpatch in Ltk, % efficacy at 10 μM
32 | COC[C@@]1(O)CC[C@H]2[C@@H](CC[C@@H]3[C@@H]2CC[C@]2(C)[C@@H](C(=O)CN4CCN(S(C)(=O)=O)CC4)CC[C@@H]32)C1 [Entry 29] | B (“B” ≥100-500)
33 | COC[C@@]1(O)CC[C@H]2[C@@H](CC[C@@H]3[C@@H]2CC[C@]2(C)[C@@H](C(=O)CN4CCN(S(C)(=O)=O)CC4)CC[C@@H]32)C1 [Entry 57] | C (“C” ≥500)

Each compound was assayed against α4β3δ GABAA receptor (Homo sapiens (Human), UniProt P28472+P48169) (assay: Patch clamp electrophysiology of recombinant α4β3δ GABAA receptors (CHO cells)). Conditions: read-out: GABA (α4β3δ) Qpatch in CHO, % efficacy at 10 μM.
Experimental: LTK cells are stably transfected with the α1β2γ2 subunits of the GABA receptor and CHO cells are transiently transfected with the α4β3δ subunits via the Lipofecatamine method. Cells were passaged at a confluence of about 50-80% and then seeded onto 35 mm sterile culture dishes containing 2 ml culture complete medium without antibiotics or antimycotics.
Whole cell currents were measured with HEKA EPC-10 amplifiers using PatchMaster software or by using the high throughput QPatch platform (Sophion). […] In some cases 0.005% cremophor was also added. Intracellular (pipette) solution contained: KCl 130 mM, MgCl2 1 mM, Mg-ATP 5 mM, HEPES 10 mM, EGTA 5 mM, pH 7.2. During experiments, cells and solutions were maintained at room temperature (19° C.-30° C.). For manual patch clamp recordings, cell culture dishes were placed on the dish holder of the microscope and continuously perfused (1 ml/min) with bath solution. After formation of a Gigaohm seal between the patch electrodes and the cell (pipette resistance range: 2.5 MΩ-6.0 MΩ; seal resistance range: >1 GΩ) the cell membrane across the pipette tip was ruptured to assure electrical access to the cell interior (whole-cell patch-configuration). For experiments using the QPatch system, cells were transferred as suspension to the QPatch system in the bath solution and automated whole cell recordings were performed.
Cells were voltage clamped at a holding potential of −80 mV. For the analysis of test articles, GABA receptors were stimulated by 2 μM GABA after sequential pre-incubation of increasing concentrations of the test article. Pre-incubation duration was 30 s and the duration of the GABA stimulus was 2 s. Test articles were dissolved in DMSO to form stock solutions (10 mM). Test articles were diluted to 0.01, 0.1, 1, and 10 μM in bath solution. All concentrations of test articles were tested on each cell. The relative percentage potentiation was defined as the peak amplitude in response to GABA EC20 in the presence of the test article divided by the peak amplitude in response to GABA EC20 alone, multiplied by 100.

Row | Structure (SMILES) | Emax at 10 µM [%]
34 | C[C@@]1(O)CC[C@H]2[C@H](CC[C@@H]3[C@@H]2CC[C@]2(C)[C@@H](C(=O)CN4CCN(S(C)(=O)=O)CC4)CC[C@@H]32)C1 [Entry 8] | > 500
35 | C[C@H]1C[C@H]2[C@@H](CC[C@@H]3[C@@H]2CC[C@]2(C)[C@@H](C(=O)CN4CCOCC4)CC[C@@H]32)C[C@]1(C)O [Entry 45] | > 500
36 | CC(=O)N1CCN(CC(=O)[C@H]2CC[C@H]3[C@@H]4CC[C@H]5C[C@](C)(O)[C@@H](C)C[C@@H]5[C@H]4CC[C@]23C)CC1 [Entry 27] | 100 to 500
